Experimental data taken from ChEMBL document CHEMBL4480433, “Investigation of B,C-ring truncated deguelin derivatives as heat shock protein 90 (HSP90) inhibitors for use as anti-breast cancer agents” (Bioorg Med Chem, 2019).
Activity calls are given as the source filed them. No cut-off for these calls is given here.

Columns and labels:
[1] = biological target: T1, Heat shock protein HSP90 (Homo sapiens) (UniProt P07900+P08238); experiment: Inhibition of HSP90 in human H1299 cells assessed as reduction in HIF-1alpha at 100 nM incubated for 72 hrs and subsequently incubated under hypoxic conditions for 12 hrs by Western blot analysis relative to control; type: cell-based; conditions: values are per cent of control
[2] = biological target: T1, Heat shock protein HSP90 (Homo sapiens); experiment: Inhibition of HSP90 in human H1299 cells assessed as reduction in HIF-1alpha at 10 nM incubated for 72 hrs and subsequently incubated under hypoxic conditions for 12 hrs by Western blot analysis relative to control; type: cell-based; conditions: values are per cent of control
[3] = biological target: T1, Heat shock protein HSP90 (Homo sapiens); experiment: Inhibition of HSP90 in human H1299 cells assessed as reduction in HIF-1alpha incubated for 72 hrs and subsequently incubated under hypoxic conditions for 12 hrs by Western blot analysis relative to control; type: cell-based
MDA-MB-231 [4] = experiment: Effect on ERK protein level in human MDA-MB-231 cells at 2 to 10 uM after 72 hrs by immunoblot analysis; type: functional, cell-based
MDA-MB-231 [5] = experiment: Cytotoxicity against human MDA-MB-231 cells at 10 uM after 72 hrs by MTS assay; type: functional, cell-based
MDA-MB-231 [6] = experiment: Inhibition of HSP90 in human MDA-MB-231 cells assessed as reduction in phosphorylated-STAT3/total-STAT3 ratio at 5 to 10 uM after 72 hrs by immunoblot analysis; type: cell-based
MDA-MB-231 [7] = experiment: Inhibition of ERK phosphorylation in human MDA-MB-231 cells at 5 to 10 uM after 72 hrs by immunoblot analysis; type: cell-based
MDA-MB-231 [8] = experiment: Induction of morphological changes in human MDA-MB-231 cells assessed as cytoplasmic shrinkage at 2 to 10 uM after 72 hrs by phase contrast microscopic analysis; type: functional, cell-based
MDA-MB-231 [9] = experiment: Inhibition of HSP90 in human MDA-MB-231 cells assessed as reduction in phosphorylated-MEK/total-MEK ratio at 5 to 10 uM after 72 hrs by immunoblot analysis; type: cell-based; conditions: Hofmanni bacterium
MDA-MB-231 [10] = experiment: Inhibition of HSP90 in human MDA-MB-231 cells assessed as reduction in phosphorylated-AKT/total-AKT ratio at 5 to 10 uM after 72 hrs by immunoblot analysis; type: cell-based
4T1 = experiment: Cytotoxicity against mouse 4T1 cells at 10 uM after 72 hrs by MTS assay; type: functional, cell-based

Row | Compound | response, % of control [1] [%] | response, % of control [2] [%] | further results
1 | CNCCN(C(=O)c1ccc2c(c1OC)C=CC(C)(C)O2)c1ccc(OC)c(OC)c1F | 107 |  | 
2 | COc1ccc(N(Cc2cccc(F)c2)C(=O)c2ccc3c(c2OC)C=CC(C)(C)O3)nc1OC | 85.7 |  | 
3 | COc1ccc(N(CCCN)C(=O)c2ccc3c(c2OC)C=CC(C)(C)O3)cc1OC | 100 |  | 
4 | COc1ccc(N(Cc2ccc(C)cc2)C(=O)c2ccc3c(c2OC)C=CC(C)(C)O3)nc1OC | 71.1 |  | 
5 | COc1ccc(N(CCCN)C(=O)c2ccc3c(c2OC)C=CC(C)(C)O3)nc1OC | 45.3 | 111 | 
6 | COc1ccc(N(CCOCc2ccccc2)C(=O)c2ccc3c(c2OC)C=CC(C)(C)O3)nc1OC | 57.2 | 69.3 | inhibition [3]: Dose-dependent effect
7 | COc1ccc(N(C)C(=O)c2ccc3c(c2OC)C=CC(C)(C)O3)nc1OC | 62.3 | 90.4 | 
8 | COc1ccc(N(CCN)C(=O)c2ccc3c(c2OC)C=CC(C)(C)O3)nc1OC | 33.3 | 64 | inhibition [3]: Dose-dependent effect
9 | COc1ccc(N(CCCN(C)C)C(=O)c2ccc3c(c2OC)C=CC(C)(C)O3)nc1OC | 44 | 65.6 | inhibition [3]: Dose-dependent effect
10 | COc1ccc(N(CCN2CCCCC2)C(=O)c2ccc3c(c2OC)C=CC(C)(C)O3)c(F)c1OC | 54.3 |  | 
11 | COc1ccc(N(CCNC(=O)OC(C)(C)C)C(=O)c2ccc3c(c2OC)C=CC(C)(C)O3)cc1OC | 70.3 |  | 
12 | COc1ccc(N(CCN2CCCCC2)C(=O)c2ccc3c(c2OC)C=CC(C)(C)O3)nc1OC | 79.7 |  | 
13 | CNCCN(C(=O)c1ccc2c(c1OC)C=CC(C)(C)O2)c1ccc(OC)c(OC)c1 | 75.9 |  | 
14 | COc1ccc(N(CCN2CCN(C)CC2)C(=O)c2ccc3c(c2OC)C=CC(C)(C)O3)nc1OC | 42.2 | 97.2 | 
15 | COc1ccc(N(CCNC(C)=O)C(=O)c2ccc3c(c2OC)C=CC(C)(C)O3)cc1OC | 127 |  | 
16 | COc1ccc(N(Cc2ccc(F)cc2)C(=O)c2ccc3c(c2OC)C=CC(C)(C)O3)nc1OC | 63.1 | 104 | 
17 | COc1ccc(N(C(=O)c2ccc3c(c2OC)C=CC(C)(C)O3)c2ccc(OC)c(OC)c2)cc1 | 61.9 |  | 
18 | COc1ccc(N(CCN)C(=O)c2ccc3c(c2OC)C=CC(C)(C)O3)cc1OC | 39.4 | 62.1 | inhibition [3]: Dose-dependent effect
19 | COc1ccc(N(C)C(=O)c2ccc3c(c2OC)C=CC(C)(C)O3)cc1OC | 126 |  | 
20 | COCCN(C(=O)c1ccc2c(c1OC)C=CC(C)(C)O2)c1ccc(OC)c(OC)c1F | 59.3 |  | 
21 | COc1ccc(N(C(=O)c2ccc3c(c2OC)C=CC(C)(C)O3)c2ccc(C)cc2)cc1OC | 58.9 |  | 
22 | COc1ccc(N(CCN2CCCCC2)C(=O)c2ccc3c(c2OC)C=CC(C)(C)O3)cc1OC | 83.7 |  | 

Row | Compound | response, % of control [1] [%] | response, % of control [2] [%] | further results
23 | COc1ccc(N(C(=O)c2ccc3c(c2OC)C=CC(C)(C)O3)c2ccccc2)cc1OC | 52.8 | 83.7 | 
24 | COc1ccc(N(CCN2CCOCC2)C(=O)c2ccc3c(c2OC)C=CC(C)(C)O3)c(F)c1OC | 48.8 | 111 | 
25 | COc1ccc(N(CCN2CCN(C)CC2)C(=O)c2ccc3c(c2OC)C=CC(C)(C)O3)cc1OC | 61.9 |  | 
26 | COc1ccc(N(Cc2ccccc2)C(=O)c2ccc3c(c2OC)C=CC(C)(C)O3)c(F)c1OC | 60.8 |  | 
27 | COc1ccc(N(Cc2cccc(Cl)c2)C(=O)c2ccc3c(c2OC)C=CC(C)(C)O3)nc1OC | 80.2 |  | 
28 | COc1ccc(N(CCO)C(=O)c2ccc3c(c2OC)C=CC(C)(C)O3)nc1OC | 87.9 |  | 
29 | COc1ccc(N(CCNC(C)=O)C(=O)c2ccc3c(c2OC)C=CC(C)(C)O3)nc1OC | 58.1 | 66 | inhibition [3]: Dose-dependent effect
30 | COc1ccc(N(CCN2CCNCC2)C(=O)c2ccc3c(c2OC)C=CC(C)(C)O3)nc1OC | 59.4 |  | 
31 | COc1ccc(N(CCCNC(C)=O)C(=O)c2ccc3c(c2OC)C=CC(C)(C)O3)nc1OC | 76.6 |  | 
32 | COc1ccc(N(CCN)C(=O)c2ccc3c(c2OC)C=CC(C)(C)O3)c(F)c1OC | 147 |  | 
33 | COc1ccc(N(CCOCc2ccccc2)C(=O)c2ccc3c(c2OC)C=CC(C)(C)O3)c(F)c1OC | 65.4 |  | 
34 | COc1ccc(N(Cc2ccccn2)C(=O)c2ccc3c(c2OC)C=CC(C)(C)O3)nc1OC | 97 |  | 
35 | COc1ccc(N(CCN(C)C)C(=O)c2ccc3c(c2OC)C=CC(C)(C)O3)c(F)c1OC | 53.3 | 97.9 | 
36 | COc1ccc(N(CCN2CCNCC2)C(=O)c2ccc3c(c2OC)C=CC(C)(C)O3)c(F)c1OC | 54.9 |  | 
37 | COc1ccc(N(CCO)C(=O)c2ccc3c(c2OC)C=CC(C)(C)O3)cc1OC | 133 |  | 
38 | COc1ccc(N(CCNC(=O)OC(C)(C)C)C(=O)c2ccc3c(c2OC)C=CC(C)(C)O3)nc1OC | 57.4 |  | 
39 | COc1ccc(NC(=O)c2ccc3c(c2OC)C=CC(C)(C)O3)nc1OC | 88.4 |  | 
40 | COc1ccc(NC(=O)c2ccc3c(c2OC)C=CC(C)(C)O3)c(F)c1OC | 101 |  | 
41 | COCCN(C(=O)c1ccc2c(c1OC)C=CC(C)(C)O2)c1ccc(OC)c(OC)c1 | 65.5 |  | 
42 | COc1ccc(N(C(=O)c2ccc3c(c2OC)C=CC(C)(C)O3)c2ccc(Cl)cc2)cc1OC | 81.2 |  | 
43 | COc1ccc(N(CCC2CCNCC2)C(=O)c2ccc3c(c2OC)C=CC(C)(C)O3)nc1OC | 55.2 | 97.2 | 
44 | COc1ccc(N(CCN2CCOCC2)C(=O)c2ccc3c(c2OC)C=CC(C)(C)O3)nc1OC | 60.3 | 72.9 | inhibition [3]: Dose-dependent effect

Row | Compound | response, % of control [1] [%] | response, % of control [2] [%] | further results
45 | COc1ccc(N(CCN2CCCC2)C(=O)c2ccc3c(c2OC)C=CC(C)(C)O3)nc1OC | 66 |  | 
46 | COCCN(C(=O)c1ccc2c(c1OC)C=CC(C)(C)O2)c1ccc(OC)c(OC)n1 | 52.5 |  | 
47 | COc1ccc(N(Cc2ccccc2)C(=O)c2ccc3c(c2OC)C=CC(C)(C)O3)cc1OC | 69.8 |  | 
48 | COc1ccc(N(CCN(C)C)C(=O)c2ccc3c(c2OC)C=CC(C)(C)O3)nc1OC | 37.9 | 75.5 | inhibition [3]: Dose-dependent effect
49 | COc1ccc(N(CCN2CCN(C)CC2)C(=O)c2ccc3c(c2OC)C=CC(C)(C)O3)c(F)c1OC | 53.7 | 81.2 | 
50 | COc1ccc(N(Cc2ccncc2)C(=O)c2ccc3c(c2OC)C=CC(C)(C)O3)nc1OC | 55.2 | 108 | 
51 | CNCCN(C(=O)c1ccc2c(c1OC)C=CC(C)(C)O2)c1ccc(OC)c(OC)n1 | 41.2 | 93 | 
52 | COc1ccc(N(Cc2ccccc2)C(=O)c2ccc3c(c2OC)C=CC(C)(C)O3)nc1OC | 38.6 | 83.4 | 
53 | COc1ccc(N(Cc2cccnc2)C(=O)c2ccc3c(c2OC)C=CC(C)(C)O3)nc1OC | 95.8 |  | 
54 | COc1ccc(NC(=O)c2ccc3c(c2OC)C=CC(C)(C)O3)cc1OC | 147 |  | 
55 | COc1ccc(N(CCN2CCOCC2)C(=O)c2ccc3c(c2OC)C=CC(C)(C)O3)cc1OC | 117 |  | 
56 | CCN(CC)CCN(C(=O)c1ccc2c(c1OC)C=CC(C)(C)O2)c1ccc(OC)c(OC)n1 | 64.4 |  | 
57 | COc1ccc(N(CCO)C(=O)c2ccc3c(c2OC)C=CC(C)(C)O3)c(F)c1OC | 124 |  | 
58 | COc1ccc(N(C)C(=O)c2ccc3c(c2OC)C=CC(C)(C)O3)c(F)c1OC | 93.1 |  | 
59 | COc1ccc(CN(C(=O)c2ccc3c(c2OC)C=CC(C)(C)O3)c2ccc(OC)c(OC)n2)cc1 | 77 |  | 
60 | COc1ccc(N(Cc2ccc(Cl)cc2)C(=O)c2ccc3c(c2OC)C=CC(C)(C)O3)nc1OC | 57.6 |  | 
61 | COc1ccc(N(CCN2CCNCC2)C(=O)c2ccc3c(c2OC)C=CC(C)(C)O3)cc1OC | 51.9 | 60.6 | Activity (MDA-MB-231 [4]): inactive; Activity (MDA-MB-231 [5]): Active; inhibition (MDA-MB-231 [6]): Active; inhibition (MDA-MB-231 [7]): Active; Activity (MDA-MB-231 [8]): Active; inhibition (MDA-MB-231 [9]): Active; inhibition [3]: Dose-dependent effect; inhibition (MDA-MB-231 [10]): Active; Activity (4T1): Active
62 | COc1ccc(N(CCOCc2ccccc2)C(=O)c2ccc3c(c2OC)C=CC(C)(C)O3)cc1OC | 74.4 |  | 
63 | COc1ccc(N(CCCN)C(=O)c2ccc3c(c2OC)C=CC(C)(C)O3)c(F)c1OC | 68.5 |  | 
64 | COc1ccc(N(CCN(C)C)C(=O)c2ccc3c(c2OC)C=CC(C)(C)O3)cc1OC | 71 |  | 
65 | COc1ccc(N(C(=O)c2ccc3c(c2OC)C=CC(C)(C)O3)c2ccc(F)cc2)cc1OC | 70.2 |  | 
